Values joined by “and” are separate entries in the source; they are usually repeats but may differ in a detail not shown here. Equal entries are not always repeated.
What was measured:
hSA [1] = target: T1, hSA (Homo sapiens, UniProt P02768); assay: Reaction phenotyping assay of AB23A hydrolysis, hSA; format: in vitro ADME; conditions: hSA 500 μg/mL (Figure 3), AB23A 20 μM, 60 min, pH 7.4 at 37°C
T1 construct: purchased Sigma-Aldrich Lot#SLCC9268
Experimental: The hydrolytic rates of AB23A in different human recombinant enzymes (hCES1A, hCES2A, hPL, hIAH1, hNotum, hAchE, hBchE, hSA, hCTSA, hMAGL) were assayed. […] After incubation for 1 h at 37°C, ice-cold acetonitrile was added to terminate the reaction and precipitate proteins. The supernatants by centrifuging were used to quantify the formation rates of AB by LC-UV analysis. The detection wavelength of AB was 196 nm.

[2] = Hydrolytic half-life of AB23A in rat liver microsomes; format: in vitro ADME; conditions: rat liver microsomes (RLMs), pH 7.4, RLMs 0.10 mg/mL, read-out: T1/2 (hydrolytic half-life)
Experimental: (§1) The hydrolytic half-lives (t1/2) of AB23A in human plasma and different human tissue preparations were carried out according to the procedure of in vitro metabolic stability studies ([Ge et al., 2013]). The incubation mixture (1,000 μL) consisted of PBS (pH 7.4), enzyme sources (HLMs/HIMs/human plasma) and AB23A. 25% diluted human plasma was used, the protein concentrations of other tissue microsomes were 0.1 mg/mL. The 100 μL incubation mixture was moved to another containing ice-cold acetonitrile tube at different time points (0, 5, 15, 30, 45, 60, 90, 120 min). All samples were centrifuged for 30 min at 20,000 g 4°C and took the supernatants for LC-UV analysis.
(§2) The incubation conditions were as follows: the classic incubation system included 100 mM potassium phosphate buffer (PBS, pH 7.4), enzyme sources, and AB23A. In all incubations, PBS and enzyme sources were pre-incubation at 37 °C for 3 min and the reaction was started by adding AB23A (the organic solvent content at most 1%). After reacting 1 h, ice-cold acetonitrile was added to terminate the reaction and precipitate proteins. The samples were centrifuged for 30 min at 20000 × g, 4 °C, and the supernatants were taken for further LC-UV analysis.

[3] = Kinetic analysis of AB23A hydrolysis in HIMs; format: in vitro ADME, human
Experimental: (§3) The enzymatic kinetics of AB23A hydrolysis in different tissue preparations (HLMs, HIMs, human plasma) and human recombinant enzymes (hCES1A, hCES2A, hSA, hBchE) were analyzed. The incubation system (200 μL) consisted of PBS, each tested enzyme, and AB23A (ranging from 0 to 1,000 μM). After incubating for 1 h, the supernatants were then used for LC-UV analysis. The kinetic parameters of AB23A hydrolysis were fitted by the following Michaelis−Menten Eq. 1 ([Zhang et al., 2022]). V=(Vmax×[S])⁄(Km+[S]) (1) Here, K m is the Michaelis constant of AB23A hydrolysis, V max is the maximum velocity of AB23A hydrolysis, V max /K m is used to calculate the intrinsic clearance (CL int ).

hSA [4] = target: T1, hSA; assay: Identification of the modification sites of hSA by AB23A (LC-MS/MS of tryptic peptides); conditions: hSA 1 mg/mL, AB23A 50 μM, 37°C; following co-incubation
Experimental: […] The soluble impurities and unbound molecules were washed by ultrapure water (200 μL) ([Nel et al., 2015]). After denaturation for 1 h in 8 M urea solution at 37°C, the mixture was alkylated with dithiothreitol and iodoacetamide in the dark, washed twice with 200 μL ultrapure water, and finally washed with 200 μL 50 mM ammonium bicarbonate. The samples were digested overnight with 2 μL trypsin in 50 mM ammonium bicarbonate solution at an enzyme-to-substrate ratio of 1:50 (w/w). The trypsin digest was collected and washed with 50 μL NaCl solution (500 mM). The peptides were desalted by the MonoSpin C18 (GL Sciences). Subsequently, the eluents were dried by the vacuum pump and resolved in 40 μL 0.1% formic acid for analyses (please refer to the Supplementary Material for more details).

[5] = Hydrolytic half-life of AB23A in human plasma; format: in vitro ADME; conditions: human plasma (25% diluted); 25% dilution human plasma, PBS pH 7.4; read-out: t1/2 (hydrolytic/metabolic half-life)
Experimental: as §1, §2

[6] = Stability of AB23A in PBS under physiological conditions; format: physicochemical; conditions: pH 7.4 at 37°C
Experimental: AB23A and its hydrolytic metabolite were separated by ACQUITY UPLC I-Class plus system (Waters Corporation, Milford, United States) coupled with ACQUITY UPLC HSS T3 (100 mm × 2.1 mm, 1.8 μm, Waters, United States), and identified by using Q-Exactive quadru-pole-Orbitrap mass spectrometer. The mobile phases consisted of 0.1% formic acid in water (A) and acetonitrile (B) with the elution gradients were as follows: 0–2 min, 5% B, 2–4 min, 5%–30% B, 4–8 min, 30%–50% B, 8–10 min, 50%–80% B, 10–14 min, 80%–100%, 14–15 min, 100% B, 15–15.1 min, 100%–5% B, 15.1–16 min, 5% B. The flow rate was set at 0.35 mL/min, while the temperature of chromatographic column was maintained at 45°C. The mass range was set from m/z 80 to 1,200. Other MS conditions were as follows: Resolution and AGC target were set at 30000 and 1e^6, the maximum IT was 50 ms and loop count was set 10. (N) CE/stepped (N)CE was set 10, 20, 40 ev. All data were analyzed by PeakView 2.2 software and Thermo Xcalibur.
The incubation conditions were as follows: the classic incubation system included 100 mM potassium phosphate buffer (PBS, pH 7.4), enzyme sources, and AB23A. In all incubations, PBS and enzyme sources were pre-incubation at 37 °C for 3 min and the reaction was started by adding AB23A (the organic solvent content at most 1%). […]

hCES1A = target: T2, hCES1A (Homo sapiens, UniProt P23141); assay: Kinetic analysis of AB23A hydrolysis in hCES1A; format: in vitro ADME; conditions: 1 h incubation
T2 construct: 10xHis; made in house; host or cells: HEK293-F cells, pTT5 vector, purified from conditioned medium
T2 sequence (P23141 18-563): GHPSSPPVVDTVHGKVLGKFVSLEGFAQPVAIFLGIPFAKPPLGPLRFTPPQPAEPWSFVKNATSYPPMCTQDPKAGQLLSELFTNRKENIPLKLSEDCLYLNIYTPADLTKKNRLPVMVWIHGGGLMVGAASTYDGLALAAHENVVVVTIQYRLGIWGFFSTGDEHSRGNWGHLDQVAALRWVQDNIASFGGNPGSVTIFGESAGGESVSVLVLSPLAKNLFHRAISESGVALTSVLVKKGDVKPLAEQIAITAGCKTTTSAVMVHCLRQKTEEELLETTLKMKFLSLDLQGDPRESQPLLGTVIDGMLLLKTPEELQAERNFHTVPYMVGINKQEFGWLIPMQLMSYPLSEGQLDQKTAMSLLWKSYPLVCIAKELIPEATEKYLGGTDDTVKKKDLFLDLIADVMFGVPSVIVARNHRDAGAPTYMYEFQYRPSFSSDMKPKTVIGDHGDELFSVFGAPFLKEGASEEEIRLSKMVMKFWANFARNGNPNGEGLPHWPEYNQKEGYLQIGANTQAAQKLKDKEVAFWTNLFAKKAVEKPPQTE
Experimental: as §3

T1 sequence (P02768 25-609): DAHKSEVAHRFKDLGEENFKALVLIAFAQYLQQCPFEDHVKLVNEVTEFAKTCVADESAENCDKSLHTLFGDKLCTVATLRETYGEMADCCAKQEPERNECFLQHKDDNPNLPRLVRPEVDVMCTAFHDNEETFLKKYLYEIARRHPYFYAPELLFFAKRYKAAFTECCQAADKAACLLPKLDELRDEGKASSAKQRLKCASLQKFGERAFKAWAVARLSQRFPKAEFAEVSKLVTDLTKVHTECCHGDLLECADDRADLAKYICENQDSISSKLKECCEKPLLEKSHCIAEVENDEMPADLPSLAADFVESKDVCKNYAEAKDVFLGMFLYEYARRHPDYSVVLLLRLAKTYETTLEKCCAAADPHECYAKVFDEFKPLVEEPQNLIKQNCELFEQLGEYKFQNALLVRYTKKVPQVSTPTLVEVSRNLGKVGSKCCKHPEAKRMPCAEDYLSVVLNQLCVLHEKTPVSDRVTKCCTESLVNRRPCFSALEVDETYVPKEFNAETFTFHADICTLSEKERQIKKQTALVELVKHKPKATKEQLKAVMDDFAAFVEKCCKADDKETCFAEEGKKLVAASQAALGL

## CC(=O)O[C@H](C[C@@H](C)C1=C2C[C@H](O)C3[C@@]4(C)CCC(=O)C(C)(C)C4CC[C@]3(C)[C@@]2(C)CC1)[C@H]1OC1(C)C (some centres unmarked) [AB23A, Alisol B 23-acetate]
hSA [1]
  Hydrolytic rate (formation of AB) in reaction phenotyping: also catalyzed this hydrolytic reaction
[2]
  half-life: 0.9272 ± 0.00183 h
[3]
  K m of AB23A hydrolysis: 164.00 ± 18.63 µM
  V max of AB23A hydrolysis: 2.93 ± 0.10 nmol/min/mg protein and 2.93 ± 0.10 ^a nmol/min/mg protein
hSA [4]
  Number of lysines in hSA acylated by AB23A: 39
[5]
  half-life: 1.916 ± 0.00333 h
[6]
  Stability in PBS: very stable
hCES1A
  K m of AB23A hydrolysis: 190.80 ± 31.41 µM

— article PMC10117764, “The roles of serine hydrolases and serum albumin in alisol B 23-acetate hydrolysis in humans” (Frontiers in Pharmacology, 2023)
